The results in this text go back to patent US20100144700A1, “HETEROCYCLIC-CARBONYL-DIAZABICYCLOALKANES AS MODULATORS OF THE NEURONAL NICOTINIC ACETYLCHOLINE ALPHA 4 BETA 2, SUBTYPE RECEPTOR FOR THE TREATMENT OF CNS RELATED DISORDERS” (TARGACEPT, INC., priority 2007, published 2010).

The structures appear in SMILES notation. Some results are limits rather than exact numbers.

For one test, the target named is T1, α4β2 nAChR Subtype (Rattus norvegicus, UniProt P09483+P12390).
T1 construct: The cerebral cortex was removed and placed in 20 volumes (weight:volume) of ice-cold preparative buffer; from tissue; host or cells: rat cerebral cortex membranes
The test is described as follows: Radioligand binding ([3H]nicotine) at rat α4β2 nAChR subtype, rat cerebral cortex membranes. As to the method: (§1) Rats (female, Sprague-Dawley), weighing 150-250 g, were maintained on a 12 h light/dark cycle and were allowed free access to water and food supplied by PMI Nutrition International, Inc. Animals were anesthetized with 70% CO2, then decapitated. Brains were removed and placed on an ice-cold platform. The cerebral cortex was removed and placed in 20 volumes (weight:volume) of ice-cold preparative buffer (137 mM NaCl, 10.7 mM KCl, 5.8 mM KH2PO4, 8 mM Na2HPO4, 20 mM HEPES (free acid), 5 mM iodoacetamide, 1.6 mM EDTA, pH 7.4); PMSF, dissolved in methanol to a final concentration of 100 μM, was added and the suspension was homogenized by Polytron. The homogenate was centrifuged at 18,000×g for 20 min at 4° C. and the resulting pellet was re-suspended in 20 volumes of ice-cold water. After 60 min incubation on ice, a new pellet was collected by centrifugation at 18,000×g for 20 min at 4° C. The final pellet was re-suspended in 10 volumes of buffer and stored at −20° C. On the day of the assay, tissue was thawed, centrifuged at 18,000×g for 20 min, and then re-suspended in ice-cold PBS (Dulbecco's Phosphate Buffered Saline, 138 mM NaCl, 2.67 mM KCl, 1.47 mM KH2PO4, 8.1 mM Na2HPO4, 0.9 mM CaCl2, 0.5 mM MgCl2, Invitrogen/Gibco, pH 7.4) to a final concentration of approximately 4 mg protein/mL. Protein was determined by the method of Lowry et al., J. Biol. Chem. 193: 265 (1951), using bovine serum albumin as the standard.
The binding of [^3H]nicotine was measured using a modification of the methods of Romano et al., Science 210: 647 (1980) and Marks et al., Mol. Pharmacol. 30: 427 (1986). The [^3H]nicotine (Specific Activity=81.5 Ci/mmol) was obtained from NEN Research Products. The binding of [^3H]nicotine was measured using a 3 h incubation at 4° C. Incubations were conducted in 48-well micro-titre plates and contained about 400 μg of protein per well in a final incubation volume of 300 μL. The incubation buffer was PBS and the final concentration of [^3H]nicotine was 5 nM. The binding reaction was terminated by filtration of the protein containing bound ligand onto glass fiber filters (GF/B, Brandel) using a Brandel Tissue Harvester at 4° C. Filters were soaked in de-ionized water containing 0.33% polyethyleneimine to reduce non-specific binding. Each filter was washed with ice-cold buffer (3×1 mL). Non-specific binding was determined by inclusion of 10 μM non-radioactive L-nicotine (Acros Organics) in selected wells.
The inhibition of [^3H]nicotine binding by test compounds was determined by including seven different concentrations of the test compound in selected wells. Each concentration was replicated in triplicate. IC50 values were estimated as the concentration of compound that inhibited 50 percent of specific [^3H]nicotine binding. Inhibition constants (Ki values), reported in nM, were calculated from the IC50 values using the method of Cheng et al., Biochem. Pharmacol. 22: 3099 (1973).

In a further test the target is T2, α7 nAChR Subtype (Rattus norvegicus, UniProt Q05941).
T2 construct: The hippocampus was removed and placed in 10 volumes (weight:volume) of ice-cold preparative buffer; from tissue; host or cells: rat hippocampus membranes
The test is described as follows: Radioligand binding ([3H]MLA) at α7 nAChR subtype, rat hippocampus membranes; HTS at 5 μM. To be noted: 5 μM compound, 5 nM 3H-MLA; read-out: α7 high throughput screening (HTS) binding. How it is done:
as §1, with “platform. The hippocampus was removed” for “platform. The cerebral cortex was removed”, “placed in 10 volumes (weight:volume)” for “placed in 20 volumes (weight:volume)”, “and the tissue suspension was” for “and the suspension was”, “re-suspended in 10 volumes of” for “re-suspended in 20 volumes of”, “of approximately 2 mg protein/mL.” for “of approximately 4 mg protein/mL.”
The binding of [^3H]MLA was measured using a modification of the methods of Davies et al., Neuropharmacol. 38: 679 (1999). [^3H]MLA (Specific Activity=25-35 Ci/mmol) was obtained from Tocris. The binding of [^3H]MLA was determined using a 2 h incubation at 21° C. Incubations were conducted in 48-well micro-titre plates and contained about 200 μg of protein per well in a final incubation volume of 300 μL. The incubation buffer was PBS and the final concentration of [^3H]MLA was 5 nM. The binding reaction was terminated by filtration of the protein containing bound ligand onto glass fiber filters (GF/B, Brandel) using a Brandel Tissue Harvester at room temperature. Filters were soaked in de-ionized water containing 0.33% polyethyleneimine to reduce non-specific binding. Each filter was washed with PBS (3×1 mL) at room temperature. Non-specific binding was determined by inclusion of 50 μM non-radioactive MLA in selected wells.
[…] Each concentration was replicated in triplicate. […] […] Pharmacol. 22: 3099-3108 (1973).

In the next test the target is Human α4β2 (Homo sapiens, UniProt P17787+P43681). Nature of the test: Binding at human α4β2 subtype (Table 1). The following applies: read-out: Human α4β2 Ki.
Chain of Human α4β2 (P43681 29-627 limits assumed): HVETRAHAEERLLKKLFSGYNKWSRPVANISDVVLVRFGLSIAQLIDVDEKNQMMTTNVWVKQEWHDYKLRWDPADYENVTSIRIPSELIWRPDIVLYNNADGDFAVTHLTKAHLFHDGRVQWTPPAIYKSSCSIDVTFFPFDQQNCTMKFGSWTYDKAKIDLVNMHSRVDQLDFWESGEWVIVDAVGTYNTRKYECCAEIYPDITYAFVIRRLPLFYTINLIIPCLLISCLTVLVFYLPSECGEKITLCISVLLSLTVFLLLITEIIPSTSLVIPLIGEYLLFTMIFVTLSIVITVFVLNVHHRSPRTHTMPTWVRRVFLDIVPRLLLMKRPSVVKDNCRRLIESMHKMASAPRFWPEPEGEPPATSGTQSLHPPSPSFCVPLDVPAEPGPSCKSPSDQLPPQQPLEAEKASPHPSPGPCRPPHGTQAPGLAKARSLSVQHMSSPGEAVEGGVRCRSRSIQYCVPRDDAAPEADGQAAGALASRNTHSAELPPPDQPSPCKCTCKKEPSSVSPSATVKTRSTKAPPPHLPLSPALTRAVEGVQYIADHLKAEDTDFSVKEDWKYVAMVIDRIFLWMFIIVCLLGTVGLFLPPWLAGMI
Chain of Human α4β2 (P17787 26-502): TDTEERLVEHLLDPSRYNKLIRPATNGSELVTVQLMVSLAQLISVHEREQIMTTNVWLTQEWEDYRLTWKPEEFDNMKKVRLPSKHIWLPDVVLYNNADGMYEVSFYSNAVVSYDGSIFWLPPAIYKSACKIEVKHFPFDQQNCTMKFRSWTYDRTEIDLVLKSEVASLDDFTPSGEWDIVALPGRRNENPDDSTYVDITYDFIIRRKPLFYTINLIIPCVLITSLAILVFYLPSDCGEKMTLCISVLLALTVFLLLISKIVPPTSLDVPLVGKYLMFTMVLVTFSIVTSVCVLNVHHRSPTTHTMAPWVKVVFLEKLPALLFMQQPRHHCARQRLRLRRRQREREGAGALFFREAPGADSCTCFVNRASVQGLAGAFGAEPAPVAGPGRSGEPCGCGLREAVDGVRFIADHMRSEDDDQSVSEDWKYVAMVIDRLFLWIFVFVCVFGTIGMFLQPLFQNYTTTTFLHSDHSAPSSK

T1 sequence (P09483 31-630): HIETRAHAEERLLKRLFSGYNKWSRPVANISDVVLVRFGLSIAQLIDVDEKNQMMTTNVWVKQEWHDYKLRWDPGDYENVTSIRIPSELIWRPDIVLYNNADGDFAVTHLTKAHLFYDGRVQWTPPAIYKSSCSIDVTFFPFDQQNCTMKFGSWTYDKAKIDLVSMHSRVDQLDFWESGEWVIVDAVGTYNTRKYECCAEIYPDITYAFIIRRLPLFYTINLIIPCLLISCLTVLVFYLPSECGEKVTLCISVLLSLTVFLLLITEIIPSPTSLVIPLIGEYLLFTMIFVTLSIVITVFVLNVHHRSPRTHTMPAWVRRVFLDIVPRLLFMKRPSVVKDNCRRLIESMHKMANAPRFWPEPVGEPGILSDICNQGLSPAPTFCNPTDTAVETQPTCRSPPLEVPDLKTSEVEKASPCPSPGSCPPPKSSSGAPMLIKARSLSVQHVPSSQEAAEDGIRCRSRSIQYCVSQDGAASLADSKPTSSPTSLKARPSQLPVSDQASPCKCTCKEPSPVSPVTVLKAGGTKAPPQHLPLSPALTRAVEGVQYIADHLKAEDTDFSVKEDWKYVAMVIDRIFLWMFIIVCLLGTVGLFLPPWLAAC
T1 sequence (P12390 25-500): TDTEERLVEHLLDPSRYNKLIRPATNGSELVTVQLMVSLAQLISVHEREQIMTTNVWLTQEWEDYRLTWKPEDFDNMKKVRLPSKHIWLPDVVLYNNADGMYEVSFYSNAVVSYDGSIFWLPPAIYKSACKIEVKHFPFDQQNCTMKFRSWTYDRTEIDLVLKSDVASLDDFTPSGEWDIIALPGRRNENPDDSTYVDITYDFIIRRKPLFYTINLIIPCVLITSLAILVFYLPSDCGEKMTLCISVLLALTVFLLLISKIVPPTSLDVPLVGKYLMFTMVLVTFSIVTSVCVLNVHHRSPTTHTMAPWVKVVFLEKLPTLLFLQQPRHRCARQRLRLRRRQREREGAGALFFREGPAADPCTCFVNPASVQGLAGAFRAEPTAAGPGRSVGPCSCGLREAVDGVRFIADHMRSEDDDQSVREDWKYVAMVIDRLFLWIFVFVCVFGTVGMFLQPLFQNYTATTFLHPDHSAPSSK
T2 sequence (Q05941 23-502): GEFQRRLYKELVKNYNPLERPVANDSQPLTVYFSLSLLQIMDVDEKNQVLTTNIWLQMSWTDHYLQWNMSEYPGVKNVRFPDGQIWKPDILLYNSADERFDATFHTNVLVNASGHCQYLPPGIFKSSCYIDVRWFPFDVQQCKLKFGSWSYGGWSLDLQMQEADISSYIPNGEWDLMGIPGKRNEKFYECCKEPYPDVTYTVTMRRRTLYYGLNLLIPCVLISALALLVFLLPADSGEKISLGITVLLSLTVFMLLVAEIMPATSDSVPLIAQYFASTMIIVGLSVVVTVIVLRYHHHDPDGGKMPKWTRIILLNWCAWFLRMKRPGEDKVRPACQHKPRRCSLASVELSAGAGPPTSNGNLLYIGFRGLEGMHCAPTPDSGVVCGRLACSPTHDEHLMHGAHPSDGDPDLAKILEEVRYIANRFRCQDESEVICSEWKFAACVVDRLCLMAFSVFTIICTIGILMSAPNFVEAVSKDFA

On to `Cc1occc1C(=O)N1C[C@H]2CN[C@H](C2)C1`, for which the Ki on α4β2 nAChR Subtype was 17.3 nM; at Human α4β2 it was 10.9 nM. On α7 nAChR Subtype, the inhibition at 5 µM is at most 50%.
`O=C(c1ccc(Cl)o1)N1C[C@@H]2CN[C@@H](C2)C1`: the Ki was determined as 39.6 nM on α4β2 nAChR Subtype and 27.1 nM on Human α4β2. The inhibition at 5 µM at α7 nAChR Subtype was at most 50%.
The like results for `O=C(c1ccno1)N1C[C@@H]2CN[C@@H](C2)C1` were, in that order, 26.8 nM, 34.5 nM and at most 50%.
For `O=C(c1cnco1)N1C[C@@H]2CN[C@@H](C2)C1` the same measures were 70.1 nM, 85.2 nM and at most 50%.
In the case of `O=C(c1ccc(F)o1)N1C[C@H]2CN[C@H](C2)C1`, the Ki was 8.5 nM at α4β2 nAChR Subtype and 6.9 nM on Human α4β2. Further, the inhibition at 5 µM on α7 nAChR Subtype was at most 50%.
As for `O=C(c1ccoc1)N1C[C@H]2CN[C@H](C2)C1`, the Ki was 10.6 nM at α4β2 nAChR Subtype and 10.5 nM on Human α4β2. For the same molecule, on α7 nAChR Subtype, the inhibition at 5 µM is at most 50%.
Regarding `Cc1nocc1C(=O)N1C[C@H]2CN[C@H](C2)C1`, the values for the Ki on α4β2 nAChR Subtype and on Human α4β2 were 56.7 nM and 54.9 nM, respectively. For the same molecule, on α7 nAChR Subtype, the inhibition at 5 µM was at most 50%.
Take `Cc1ncoc1C(=O)N1C[C@H]2CN[C@H](C2)C1`: the Ki on α4β2 nAChR Subtype is 8.9 nM; on Human α4β2, 4.6 nM. The inhibition at 5 µM on α7 nAChR Subtype is at most 50%.
For `Cc1cc(C(=O)N2C[C@H]3CN[C@H](C3)C2)no1`, the Ki on α4β2 nAChR Subtype is 14.8 nM; on Human α4β2 it was 17.1 nM. Besides, on α7 nAChR Subtype, the inhibition at 5 µM is at most 50%.
For the molecule `O=C(c1ccno1)N1C[C@H]2CN[C@H](C2)C1`, the values for the Ki on α4β2 nAChR Subtype and on Human α4β2 were 10.2 nM and 11.4 nM, respectively. At α7 nAChR Subtype, the inhibition at 5 µM is at most 50%.
As for `O=C(c1cccs1)N1C[C@H]2CN[C@H](C2)C1`, the Ki stood at 5.9 nM at α4β2 nAChR Subtype and 7.2 nM at Human α4β2. Also, the inhibition at 5 µM at α7 nAChR Subtype is at most 50%.
For `O=C(c1cnco1)N1C[C@H]2CN[C@H](C2)C1`, the Ki was 13 nM on α4β2 nAChR Subtype and 14 nM at Human α4β2. For the same molecule, the inhibition at 5 µM on α7 nAChR Subtype was at most 50%.
With `O=C(c1ccc(F)o1)N1C[C@@H]2CN[C@@H](C2)C1`, the Ki on α4β2 nAChR Subtype was determined as 9.3 nM; at Human α4β2, 14.5 nM. Also, the inhibition at 5 µM at α7 nAChR Subtype was at most 50%.
In the case of `Cc1coc(C(=O)N2C[C@@H]3CN[C@@H](C3)C2)c1`, the Ki is 29.4 nM at α4β2 nAChR Subtype and 51.6 nM at Human α4β2. Moreover, on α7 nAChR Subtype, the inhibition at 5 µM is at most 50%.
The like results for `O=C(c1cc(Cl)co1)N1C[C@@H]2CN[C@@H](C2)C1` were, in that order, 31.2 nM, 41.4 nM and at most 50%.
As for `N#Cc1coc(C(=O)N2C[C@@H]3CN[C@@H](C3)C2)c1`, the Ki on α4β2 nAChR Subtype worked out at 23.6 nM; at Human α4β2 it was 48.6 nM. The inhibition at 5 µM on α7 nAChR Subtype was at most 50%.
As for `Cc1ncoc1C(=O)N1CCC2NCC2C1` (stereo not shown), the inhibition at 5 µM on α7 nAChR Subtype was at most 50%. For the same molecule, the Ki at Human α4β2 amounted to 792 nM.
For `Cc1ncoc1C(=O)N1CC2CNCCC21` (stereo not shown) the same measures were at most 50% and 515 nM.
